Measured values published in ChEMBL document CHEMBL1149409, “Inhibition of GABA shunt enzymes' activity by 4-hydroxybenzaldehyde derivatives” (Bioorg Med Chem Lett, 2006).

Legend:
[1] = molecular target: 4-aminobutyrate aminotransferase, mitochondrial (Homo sapiens, UniProt P80404); test: Inhibitory activity against GABAT
[2] = molecular target: T1, Succinate-semialdehyde dehydrogenase, mitochondrial (Homo sapiens, UniProt P51649); test: Inhibitory activity against SSADH
T1 sequence (P51649 whole entry): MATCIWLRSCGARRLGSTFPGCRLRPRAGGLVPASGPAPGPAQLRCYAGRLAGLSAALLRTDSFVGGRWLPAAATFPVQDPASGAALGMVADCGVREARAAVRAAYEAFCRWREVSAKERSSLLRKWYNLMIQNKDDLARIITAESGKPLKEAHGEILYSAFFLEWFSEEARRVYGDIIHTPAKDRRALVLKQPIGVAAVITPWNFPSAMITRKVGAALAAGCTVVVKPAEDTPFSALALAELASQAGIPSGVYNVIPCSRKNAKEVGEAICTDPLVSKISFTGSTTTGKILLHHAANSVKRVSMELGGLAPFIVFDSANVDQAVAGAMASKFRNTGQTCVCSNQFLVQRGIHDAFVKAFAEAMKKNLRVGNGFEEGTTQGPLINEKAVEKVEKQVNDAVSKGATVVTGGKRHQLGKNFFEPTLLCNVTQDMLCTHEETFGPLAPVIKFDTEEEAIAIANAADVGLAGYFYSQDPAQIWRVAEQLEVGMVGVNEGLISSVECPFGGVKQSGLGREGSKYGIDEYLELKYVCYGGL

Chain of 4-aminobutyrate aminotransferase, mitochondrial (P80404 whole entry): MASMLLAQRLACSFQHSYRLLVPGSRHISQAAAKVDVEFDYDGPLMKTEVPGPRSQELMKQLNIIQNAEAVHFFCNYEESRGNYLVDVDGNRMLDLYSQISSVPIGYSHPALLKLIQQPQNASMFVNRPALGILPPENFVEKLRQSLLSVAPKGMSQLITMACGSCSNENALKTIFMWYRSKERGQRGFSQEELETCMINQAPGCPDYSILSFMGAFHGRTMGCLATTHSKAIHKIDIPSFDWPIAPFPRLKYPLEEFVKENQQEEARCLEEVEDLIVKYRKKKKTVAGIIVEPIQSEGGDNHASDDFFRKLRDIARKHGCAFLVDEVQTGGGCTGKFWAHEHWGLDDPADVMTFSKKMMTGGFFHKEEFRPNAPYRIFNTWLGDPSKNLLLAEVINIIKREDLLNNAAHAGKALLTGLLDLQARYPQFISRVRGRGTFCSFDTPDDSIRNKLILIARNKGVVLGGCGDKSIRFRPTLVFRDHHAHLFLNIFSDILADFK

Row | IC50 [1] [µM] | IC50 [2] [µM] | SMILES
1 | > 1000 | > 1000 | COc1cc(/C=N/O)ccc1O
2 | 15.4 | > 1000 | NCc1ccc(O)cc1
3 | > 1000 | > 1000 | O/N=C/c1ccc(O)cc1
4 | 15.5 | 33.1 | O=Cc1ccc(O)c([N+](=O)[O-])c1
5 | 5.48 | 0.35 | C=CC(=O)c1ccc(O)cc1
6 | 188 | 166 | CC(=O)c1ccc(O)cc1 [4-HYDROXYACETOPHENONE]
7 | > 1000 | > 1000 | Nc1ccc(C(=O)O)cc1 [AMINOBENZOIC ACID]
8 | > 1000 | > 1000 | OCc1ccc(O[C@@H]2O[C@H](CO)[C@@H](O)[C@H](O)[C@H]2O)cc1 [GASTRODIN]
9 | > 1000 | > 1000 | O=Cc1ccc(O[C@@H]2O[C@H](CO)[C@@H](O)[C@@H](O)[C@H]2O)cc1 [HELICIDE]
10 | > 1000 | > 1000 | O=C(O)c1ccc(O)cc1 [PARABEN]
11 | > 1000 | > 1000 | OCc1ccc(O)cc1 [PARAHYDROXYBENZYL ALCOHOL]
12 | 176 | 293 | CCC(=O)c1ccc(O)cc1 [PAROXYPROPIONE]
13 | 17.1 | 15.6 | COc1cc(C=O)ccc1O [VANILLIN]

Row | SMILES | IC50 [1] [µM] | IC50 [2] [µM]
14 | O=Cc1ccc(O)cc1 [4-HYDROXYBENZALDEHYDE] | 16.5 | 24.7
15 | COc1ccc(C=O)cc1 [ANISALDEHYDE] | > 1000 | > 1000
